Results from patent US8987272B2, “Compounds and method for treatment of HIV” (priority 2010, dated 2015).
Where “and” joins values, the source holds several entries; their conditions need not be identical. Equal entries are not always repeated. Entries after “also recorded” stand apart in the source; their conditions may differ. Where two headings read alike, the source gives them in different places.

Key:
HIV-1 integrase [1] = molecular target: T1, HIV-1 integrase (Human immunodeficiency virus type 1 group M subtype B (isolate HXB2) (HIV-1), UniProt P04585); assay: biochemical; format: biochemical
Method: The effect of each compound on HIV integrase activity was assayed using the “HIV-1 Integrase Assay Kit” version 2.0, catalogue number EZ-1700 obtained from XpressBio Life Science Products. Immediately prior to the start of the assay, both compounds were dissolved in dimethyl sulfoxide (DMSO) and used immediately in the HIV integration assay. The assay was performed according to the instructions listed by the manufacturer (XpressBio Life Science Products, Maryland, USA). In brief, the required streptavidin-coated strip wells were coated with DS oligo and placed overnight at 4° C. The plates were then incubated with integrase and followed by the addition of test articles at the desired concentration. The plates were developed using the supplied HRP antibody and TMB peroxidase substrate as per the manufacturer's instructions. The reactions were stopped with TMB stop solution and immediately read (<10 min) using a VICTOR XXX. The absorbance of each well was read at 450 nm for 0.5 sec. All measurements were performed in triplicate.
The background absorbance was subtracted from the raw data of each sample to yield “background corrected” absorbance values. […] The CV=% SD for the 100% integrase alone control.
To determine the IC50 of each test compound, non-linear regression analysis was used.
Because the top and the bottom plateaus can be defined by solid control data (eg. sodium azide), the data was fitted to a normalized model in order to calculate the IC50. […] Since 6 compound concentrations were tested in triplicate, the data was analyzed using the standard slope model, in contrast with the variable slope model.

HIV-1 integrase [2] = molecular target: T1, HIV-1 integrase; assay: biochemical; format: biochemical; remark: listed apart in the source
Method: The capacity of the compound to inhibit HIV integrase in a cell-free system was assessed. An HIV Integrase Assay System (XpressBio Life Science Products; Thurmont, Md., www.expressbio.com) was used. In brief, double-stranded HIV-1 donor substrate (the U5 long terminal repeat) was immobilized in 96-well plates. Recombinant HIV-1 integrase protein was added, along with an oligonucleotide target substrate. The integrase cleaves the donor substrate and integrates it into the target substrate, which is now in solution phase—the integrated product (the amount is indicative of integrase activity) was detected using an antibody specific for the recombinant target/donor sequence. Inhibitors added along with the donor substrate reduced the amount of product. […] The capacity of a compound known to inhibit HIV integrase activity (NaN3) was assessed as a positive control. All assessed inhibitions were compared to controls treated with vehicle only (compounds dissolved in 100% DMSO, then diluted in buffer to a maximum DMSO concentration of 0.1% DMSO).
However, it should be kept in mind that indirect HIV integrase inhibition (which might possibly occur in living cells) will not be detected.
COTI-HIV1Doxo was assayed for HIV-1 integrase activity, as described above. All measurements were made in quadruplicate (n=4) to allow statistical analysis of significance.

[3] = all concentrations tested (lowest 1 nM)

SMILES: Cn1nc(C(=O)NCc2ccc(F)cc2)/c(=N\O)c2ncccc21 [COTI-HIV28236]
- IC50 (HIV-1 integrase [1]): 14 µM
- inhibition of HIV-1 integrase (HIV-1 integrase [1]; [3]): significantly inhibited HIV-1 integrase; also recorded: significantly inhibit HIV-1 integrase activity
- reduction in HIV-1 integrase activity (HIV-1 integrase [1]; at 100 μM): At least 50%

SMILES: Cn1nc(-c2nnc(Cc3ccc(F)cc3)o2)/c(=N\O)c2ncccc21 [COTI-HIV1Oxime]
- IC50 (HIV-1 integrase [1]): 23.9 µM
- percent of the total control activity (HIV-1 integrase [1]; at 100 μM): 34.82%
- reduction in HIV-1 integrase activity (HIV-1 integrase [1]; at 100 μM): At least 50%
- inhibition of HIV-1 integrase (HIV-1 integrase [1]; at 100 μM, listed as COTI-HIV28233): significantly inhibited HIV-1 integrase; also recorded: significantly reduce activity
- inhibition of HIV-1 integrase activity (HIV-1 integrase [1]; at low concentrations): modestly inhibit HIV-1 integrase activity

SMILES: Cn1cnc(-c2nnc(Cc3ccc(F)cc3)o2)c(O)c1=O [COTI-HIV1Doxo, 6-[5-(4-Fluoro-benzyl)-[1,3,4]oxadiazol-2-yl]-5-hydroxy-3-methyl-3H pyrimidin-4-one]
- IC50 (HIV-1 integrase [2]): ~10 µM
- effect on HIV-1 integrase activity (HIV-1 integrase [2]; 1 nM, listed as COTI-HIV-1 ketone derivative): enhanced HIV-1 integrase activity; also recorded: slightly but significantly enhanced HIV-1 integrase activity
- effect on HIV-1 integrase activity (HIV-1 integrase [2]; 100 nM): inhibited HIV-1 integrase; also recorded: significantly reduce HIV-1 integrase activity
- effect on HIV-1 integrase activity (HIV-1 integrase [2]; all higher tested concentrations (up to 100 μM)): significantly decreased HIV-1 integrase activity
- complete inhibition of integrase activity (HIV-1 integrase [2]; up to 100 μM): not observed

SMILES: Cn1cnc(-c2nnc(Cc3ccc(F)cc3)o2)c(O)/c1=N\O [COTI-HIV1DOxime, 6-[5-(4-fluoro-benzyl)-[1,3,4]oxadiazol-2-yl]-5-hydroxy-3-methyl-3H-pyrimidin-4-one oxime]
- IC50 (HIV-1 integrase [1]): 58.7 µM
- inhibition of HIV-1 integrase (HIV-1 integrase [1]; [3]): significantly inhibited HIV-1 integrase; also recorded: significantly inhibit HIV-1 integrase activity

SMILES: [N-]=[N+]=[N-].[Na+] [sodium azide, reference compound]
- effect of positive control on HIV-1 integrase activity (HIV-1 integrase [1]; positive control): effectively decrease HIV-1 integrase activity
- calculated IC50 of sodium azide controls (HIV-1 integrase [1]; two controls run in parallel): 0.12% and 0.14%
- percent control activity (HIV-1 integrase [1]; with 10% sodium azide): 0%
- effect of positive control on HIV-1 integrase activity (HIV-1 integrase [2]; 1.0% or 3.3%): effectively decreased HIV-1 integrase activity
